Source: patent US11554171B2, “Compounds and methods for the targeted degradation of bromodomain-containing proteins” (Arvinas Operations, Inc., priority 2015, dated 2023)

Tested on: c-myc in 22RV-1 cells
Test: Human c-myc ELISA assay
Format: cell-based
Settings: Homo sapiens; for Emax: 22Rv1, 18 h, read-out: Degradation of BRD4: Maximum inhibition (%) c-Myc ELISA in 22RV1 cells; for DC50: 22Rv1, read-out: Degradation of BRD4: DC50 (uM) c-Myc ELISA in 22RV1 cells
Outline: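 c-myc levels measured by ELISA in RIPA lysates of 22RV-1 cells, calibrated with a 333-0 pg/ml standard curve. Lysates came from cells exposed for 18 h to an 8-point, 1:3 dose series starting at 300 nM or 1 μM final in 0.1% DMSO. Suppression potency given as DC50.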

| SMILES | Emax | DC50 |
| --- | --- | --- |
| Cc1ncsc1-c1ccc(CNC(=O)[C@@H]2C[C@@H](O)CN2C(=O)[C@@H](c2cc(OCCO[C@H]3C[C@@H](NC(=O)C[C@@H]4N=C(c5ccc(Cl)cc5)c5c(sc(C)c5C)-n5c(C)nnc54)C3)no2)C(C)C)cc1 [Example 317] | 89.9% | < 0.01 µM |
| Cc1ncsc1-c1ccc([C@H](C)NC(=O)[C@@H]2C[C@@H](O)CN2C(=O)[C@@H](NC(=O)CCCCC(=O)N2CCN(C(=O)C[C@@H]3N=C(c4ccc(Cl)cc4)c4c(sc(C)c4C)-n4c(C)nnc43)CC2)C(C)(C)C)cc1 [Example 319] | 78.5% | 0.1 to 1 µM |
| Cc1ncsc1-c1ccc([C@H](C)NC(=O)[C@@H]2C[C@@H](O)CN2C(=O)[C@@H](NC(=O)COCCCOCCN(C)C(=O)C[C@@H]2N=C(c3ccc(Cl)cc3)c3c(sc(C)c3C)-n3c(C)nnc32)C(C)(C)C)cc1 [Example 148] | 100% | < 0.01 µM |
| Cc1ncsc1-c1ccc(CNC(=O)[C@@H]2C[C@@H](O)CN2C(=O)[C@@H](C(C)C)n2cc(-c3ccnc(O[C@@H](C)CNC(=O)C[C@@H]4N=C(c5ccc(Cl)cc5)c5c(sc(C)c5C)-n5c(C)nnc54)c3)cn2)cc1 [Example 179] | 13.9% | > 1 µM |
| Cc1ncsc1-c1ccc(CNC(=O)[C@@H]2C[C@@H](O)CN2C(=O)[C@@H](NC(=O)CCN2CCN(CCNC(=O)C[C@@H]3N=C(c4ccc(Cl)cc4)c4c(sc(C)c4C)-n4c(C)nnc43)CC2)C(C)(C)C)cc1 [Example 103] | 62.5% | 0.1 to 1 µM |
| Cc1ncsc1-c1ccc([C@H](C)NC(=O)[C@@H]2C[C@@H](O)CN2C(=O)[C@@H](NC(=O)COc2ccc(O[C@@H](C)CNC(=O)C[C@@H]3N=C(c4ccc(Cl)cc4)c4c(sc(C)c4C)-n4c(C)nnc43)cc2)C(C)(C)C)cc1 [Example 135, (2S,4R)-1-[(2S)-2-{2-[(6-{[(2S)-1-{2-[(9S)-7-(4-chlorophenyl)-4,5,13-trimethyl-3-thia-1,8,11,12-tetraazatricyclo[8.3.0.0^2,^6]trideca-2(6),4,7,10,12-pentaen-9-yl]acetamido}propan-2-yl]oxy}pyridin-3-yl)oxy]acetamido}-3,3-dimethylbutanoyl]-4-hydroxy-N-[(1S)-1-[4-(4-methyl-1,3-thiazol-5-yl)phenyl]ethyl]pyrrolidine-2-carboxamide] | 99% | < 0.01 µM |
| Cc1ncsc1-c1ccc(CNC(=O)[C@@H]2C[C@@H](O)CN2C(=O)[C@@H](NC(=O)CCc2ccc(OCCNC(=O)C[C@@H]3N=C(c4ccc(Cl)cc4)c4c(sc(C)c4C)-n4c(C)nnc43)nc2)C(C)(C)C)cc1 [Example 139, (2S,4R)-1-[(2S)-2-{3-[6-(2-{2-[(9S)-7-(4-chlorophenyl)-4,5,13-trimethyl-3-thia-1,8,11,12-tetraazatricyclo[8.3.0.0^2,^6]trideca-2(6),4,7,10,12-pentaen-n-9-yl]acetamido}ethoxy)pyridin-3-yl]propanamido}-3,3-dimethylbutanoyl]-4-hydroxy-N-{[4-(4-methyl-1,3-thiazol-5-yl)phenyl]methyl}pyrrolidine-2-carboxamide] | 98% | < 0.01 µM |
| Cc1ncsc1-c1ccc(CNC(=O)[C@@H]2C[C@@H](O)CN2C(=O)[C@@H](NC(=O)COCCCOCCCOc2ccc([C@H](C)NC(=O)C[C@@H]3N=C(c4ccc(Cl)cc4)c4c(sc(C)c4C)-n4c(C)nnc43)cc2)C(C)(C)C)cc1 [Example 25, (2S,4R)-1-[(2S)-2-{2-[3-(3-{4-[(1S)-1-{2-[(9S)-7-(4-chlorophenyl)-4,5,13-trimethyl-3-thia-1,8,11,12-tetraazatricyclo[8.3.0.0^2,^6]trideca-2(6),4,7,10,12-pentaen-9-yl]acetamido}ethyl]phenoxy}propoxy)propoxy]acetamido}-3,3-dimethylbutanoyl]-4-hydroxy-N-{[4-(4-methyl-1,3-thiazol-5-yl)phenyl]methyl}pyrrolidine-2-carboxamide] | 100% | 0.01 to 0.1 µM |
| Cc1ncsc1-c1ccc(CNC(=O)[C@@H]2C[C@@H](O)CN2C(=O)[C@@H](NC(=O)COCCCOCCCOc2ccc(NC(=O)C[C@@H]3N=C(c4ccc(Cl)cc4)c4c(sc(C)c4C)-n4c(C)nnc43)c(F)c2)C(C)(C)C)cc1 [Example 20] | 94% | 0.01 to 0.1 µM |
| Cc1ncsc1-c1ccc([C@H](C)NC(=O)[C@@H]2C[C@@H](O)CN2C(=O)[C@@H](NC(=O)Cc2ccc(O[C@H]3C[C@H](NC(=O)C[C@@H]4N=C(c5ccc(Cl)cc5)c5c(sc(C)c5C)-n5c(C)nnc54)C3)cc2F)C(C)(C)C)cc1 [Example 249, (2S,4R)-1-[(2S)-2-(2-{2-fluoro-4-[(1r,3r)-3-{2-[(9S)-7-(4-chlorophenyl)-4,5,13-trimethyl-3-thia-1,8,11,12-tetraazatricyclo[8.3.0.0^2,^6]trideca-2(6),4,7,10,12-pentaen-9-yl]acetamido}cyclobutoxy]phenyl}acetamido)-3,3-dimethylbutanoyl]-4-hydroxy-N-[(1S)-1-[4-(4-methyl-1,3-thiazol-5-yl)phenyl]ethyl]pyrrolidine-2-carboxamide] | 98.5% | < 0.01 µM |
| Cc1ncsc1-c1ccc(CNC(=O)[C@@H]2C[C@@H](O)CN2C(=O)[C@H](c2cc(OCCC(F)(F)CCNC(=O)C[C@@H]3N=C(c4ccc(Cl)cc4)c4c(sc(C)c4C)-n4c(C)nnc43)no2)C(C)C)cc1 [Example 296, (2S,4R)-1-[(2S)-2-{3-[(5-{2-[(9S)-7-(4-chlorophenyl)-4,5,13-trimethyl-3-thia-1,8,11,12-tetraazatricyclo[8.3.0.0^2,^6]trideca-2(6),4,7,10,12-pentaen-9-yl]acetamido}-3,3-difluoropentyl)oxy]-1,2-oxazol-5-yl}-3-methylbutanoyl]-4-hydroxy-N-{[4-(4-methyl-1,3-thiazol-5-yl)phenyl]methyl}pyrrolidine-2-carboxamide] | 71.4% | 0.1 to 1 µM |
| Cc1ncsc1-c1ccc(CNC(=O)[C@@H]2C[C@@H](O)CN2C(=O)[C@@H](NC(=O)COCCOCCOCCOCCOCCOCCNC(=O)C[C@@H]2N=C(c3ccc(Cl)cc3)c3c(sc(C)c3C)-n3c(C)nnc32)C(C)(C)C)cc1 [Example 4, (2S,4R)-1-[(2S)-2-(20-{2-[(9S)-7-(4-chlorophenyl)-4,5,13-trimethyl-3-thia-1,8,11,12-tetraazatricyclo[8.3.0.0^2,^6]trideca-2(6),4,7,10,12-pentaen-9-yl]acetamido}-3,6,9,12,15,18-hexaoxaicosanamido)-3,3-dimethylbutanoyl]-4-hydroxy-N-{[4-(4-methyl-1,3-thiazol-5-yl)phenyl]methyl}-pyrrolidine-2-carboxamide] | 62.2% | 0.1 to 1 µM |
| Cc1ncsc1-c1ccc(CNC(=O)[C@@H]2C[C@@H](O)CN2C(=O)[C@H](C(C)C)N2Cc3ccccc3C2=O)c(OCCOCCOCCOCCOCCNC(=O)C[C@@H]2N=C(c3ccc(Cl)cc3)c3c(sc(C)c3C)-n3c(C)nnc32)c1 [Example 2] | 41% | > 1 µM |
| Cc1ncsc1-c1ccc(CNC(=O)[C@@H]2C[C@@H](O)CN2C(=O)[C@@H](NC(=O)COCCCOc2ccc3c(c2)c2c(C(N)=O)cc(-c4c(C)noc4C)cc2n3Cc2ccccc2)C(C)(C)C)cc1 [Example 184] | 91.5% | 0.01 to 0.1 µM |
| Cc1ncsc1-c1ccc([C@H](C)NC(=O)[C@@H]2C[C@@H](O)CN2C(=O)[C@@H](NC(=O)CN2CCN(C3CC4(C3)CN(C(=O)C[C@@H]3N=C(c5ccc(Cl)cc5)c5c(sc(C)c5C)-n5c(C)nnc53)C4)C[C@@H]2C)C(C)(C)C)cc1 [Example 358] | > 90% | 0.01 to 0.1 µM |
| Cc1ncsc1-c1ccc([C@H](C)NC(=O)[C@@H]2C[C@@H](O)CN2C(=O)[C@@H](NC(=O)Cc2ccc(-c3cn([C@@H](C)CNC(=O)C[C@@H]4N=C(c5ccc(Cl)cc5)c5c(sc(C)c5C)-n5c(C)nnc54)cn3)cc2)C(C)(C)C)cc1 [Example 341] | 98.5% | < 0.01 µM |
| Cc1ncsc1-c1ccc([C@H](C)NC(=O)[C@@H]2C[C@@H](O)CN2C(=O)[C@H](C(C)C)n2cc(-c3ccc(N4CC(NC(=O)C[C@@H]5N=C(c6ccc(Cl)cc6)c6c(sc(C)c6C)-n6c(C)nnc65)C4)nc3)cn2)cc1 [Example 265] | 95.9% | 0.01 to 0.1 µM |
| Cc1ncoc1-c1ccc([C@H](C)NC(=O)[C@@H]2C[C@@H](O)CN2C(=O)[C@@H](C(C)C)n2cc(-c3ccnc(O[C@H]4C[C@@H](NC(=O)C[C@@H]5N=C(c6ccc(Cl)cc6)c6c(sc(C)c6C)-n6c(C)nnc65)C4)c3)cn2)cc1 [Example 276] | 36% | > 1 µM |
| Cc1sc2c(c1C)C(c1ccc(Cl)cc1)=N[C@@H](CC(=O)N[C@H]1C[C@H](Oc3ccc(CC(=O)N[C@H](C(=O)N4C[C@H](O)C[C@H]4C(=O)N[C@H](C)c4ccc(S(C)(=O)=O)cc4)C(C)(C)C)cc3)C1)c1nnc(C)n1-2 [Example 308] | 21% | > 1 µM |
| Cc1ncsc1-c1ccc(CNC(=O)[C@@H]2C[C@@H](O)CN2C(=O)[C@H](c2cc(OCCN3CC[C@H](NC(=O)C[C@@H]4N=C(c5ccc(Cl)cc5)c5c(sc(C)c5C)-n5c(C)nnc54)C3)no2)C(C)C)cc1 [Example 309] | 18% | > 1 µM |
| Cc1ncsc1-c1ccc([C@H](C)NC(=O)[C@@H]2C[C@@H](O)CN2C(=O)[C@@H](NC(=O)/C=C/c2ccc(F)c(O[C@@H](C)CNC(=O)C[C@@H]3N=C(c4ccc(Cl)cc4)c4c(sc(C)c4C)-n4c(C)nnc43)c2)C(C)(C)C)cc1 [Example 160] | 94.5% | < 0.01 µM |
| Cc1ncoc1-c1ccc([C@H](C)NC(=O)[C@@H]2C[C@@H](O)CN2C(=O)[C@@H](NC(=O)Cc2ccc(O[C@H]3C[C@H](NC(=O)C[C@@H]4N=C(c5ccc(Cl)cc5)c5c(sc(C)c5C)-n5c(C)nnc54)C3)cc2)C(C)(C)C)cc1 [Example 274] | 95.4% | < 0.01 µM |
